According to article PMC3260434 (Journal of Molecular Neuroscience, 2011):
No end group written: not given here.

Experiments:
[1] = test system: primary neuronal cell cultures from rat cerebral cortex; experiment: Assay of cyclic AMP formation; assay type: cell-based; settings: for Increase in cyclic AMP production over the basal level: forskolin 1 μM, PACAP27 0.1 μM, VIP 3 μM, rat neuronal cell cultures
[2] = test system: astrocyte cultures from rat cerebral cortex; settings: ref Woldan-Tambor et al. [2011]; cited from earlier work
OX2R = settings: heterologous expression systems; ref Sakurai et al. [1998]; Ammoun et al. [2003]; cited from earlier work

Compound	Increase in cyclic AMP production over the basal level [1]	other results
C=C[C@@]1(C)CC(=O)[C@]2(O)[C@@]3(C)[C@@H](O)CCC(C)(C)[C@@H]3[C@H](O)[C@H](OC(C)=O)[C@@]2(C)O1 [forskolin]	three- to fivefold over the basal level	
PACAP27	three- to fivefold over the basal level	
VIP: vasoactive intestinal peptide (human, porcine, and rat) (HSDAVFTDNYTRLRKQMAVKKYLNSILN; ends and bridges not checked; UniProt P01282 125-152, looked up)	three- to fivefold over the basal level	
[Ala^11-D-Leu^15]orexin B		Effect on basal cyclic AMP accumulation ([1]; 0.001–1 μM, cultured rat cortical neurons, data not shown): No significant effects
orexin A: neuropeptide, an agonist of OX1R and OX2R; from NeoMPS (QPLPDCCRQKTCSCRLYELLHGAGNHAAGILTL; ends and bridges not checked; cysteine pairing not given here; UniProt O43612 34-66, looked up)		Effect on cyclic AMP synthesis in astrocyte cultures [2]: stimulatory effect
orexin B: neuropeptide derived from preproorexin; literature affinity only		Affinity of OX2R for orexins A and B (OX2R): equal affinity
